From patent US20070032545A1, “Antibiotic fki-1778 and process for producing the same” (priority 2004, published 2007) come the findings set out here.

The test system of test [1] is human leukemia cell strain Jurkat cell. Briefly: Cell cycle G1 phase terminating activity, DNA content by flow cytometer. Format: cell-based. The note with it: Jurkat cells, 5 μg added to 200 μl medium, 24 hours; for G2/M phase: No addition 22.3; for G1 phase: No addition 53.2. On the procedure: Further, a terminating activity of antibiotic FKI-1778 of the present invention against cell cycle G1 phase in cancer cells is explained as follows. Using 96-well microplate (Corning Corp., the U.S.), human leukemia cell strain Jurkat cell, 5×10^5 cells/well, was inoculated into RPMI 1640 medium (IWAKI Corp., Japan) 200 μl containing a mixture of 10% fetal bovine serum and 1% penicillin (10,000 units/ml)—streptomycin (10 mg/ml) (Invitrogen Inc., the U.S.) and cultured. Antibiotic FKI-1778, 5 μg, was added thereto, and the mixture was incubated at 37° C. for 24 hours under 5% CO2 atmosphere, and the culture supernatant was discarded. Cells were suspended in 0.1% aqueous sodium citrate solution (200 μl) containing 0.002% ribonuclease A (Sigma Corp., the U.S.), 0.005% propidium iodide (Sigma Corp., the U.S.) and 0.3 ml/100 ml IGEPAL-CA-630 (Sigma Corp., the U.S.). After the cell suspension was allowed to stand for 2 hours or more, DNA contents in 10,000 cells were measured by using flow cytometer (FACS Calibur, Becton, Dickinson and Company, the U.S.), then DNA contents of cells in G1 phase, S phase and G2/M phase were measured by using software, Cell Quest (Becton, Dickinson and Company, the U.S.).
A general note: Flow cytometry measures light scatter and fluorescence of single cells or particles in a stream.

The subject of test [2] is nauplius larva of Artemia salina. Nature of the test: Anti-arthropod activity on nauplius larva in 96-well microplate. Format: in vivo. The note with it: observed microscopically after 2 days. The procedure:
Next, anti-arthropod activities of antibiotic FKI-1778 10 of the present invention are described hereinbelow. Methanol solution of each antibiotic FKI-1778 was placed in the microplate (96 wells) (Corning Corp., the U.S.). […] The buffer solution 50 μl containing several numbers of nauplius larva of Artemia salina, Arthropod, which was incubated in the buffer solution (Tris 20 mM, sodium chloride 440 mM, magnesium chloride 23 mM, sodium carbonate 1.9 mM, magnesium sulfate 53 mM and calcium chloride 10 mM), was added to each well, and the condition thereof was observed microscopically after 2 days.

The test system of another test is various microorganisms. Nature of the test: Growth inhibitory activity against various microorganisms (summary of Table 2). Format: cell-based. As to conditions: result in words. From the text: Next, diameters of inhibition ring of antibiotic FKI-1778A, antibiotic FKI-1778B, antibiotic FKI-1778C and antibiotic FKI-1778D against various microorganisms on the nutrient agar medium are shown in Table 2.

Consider `C=C1CCC2C(C)(CC/C=C(\C)C(=O)O)C(OC(C)=O)CCC2(C)C1Cc1c(O)c(C)c(C)oc1=O` (stereo not shown) [FKI-1778A], for which, in test [1], the G2/M phase was found to be 12.8% and the G1 phase was 62.4%. The compound also yielded an Anti-arthropod activity in test [2] above 200 µg/mL. Also, in the test on various microorganisms, the “growth inhibitory activities against various microorganisms” value is “no growth inhibitory activities”.
For `C=C1CCC2C(C)(CC/C=C(/C)CO)C(OC(C)=O)CCC2(C)C1Cc1c(O)c(C)c(C)oc1=O` (stereo not shown) [FKI-1778D] the same measures were 9.9%, 63.9%, 100 µg/mL and “no growth inhibitory activities”.
For `C=C1CCC2C(C)(CC/C=C(\C)CO)C(OC(C)=O)CCC2(C)C1Cc1c(O)c(C)c(C)oc1=O` (stereo not shown) [FKI-1778B], in that order: 12.0%, 55.0%, 100 µg/mL and “no growth inhibitory activities”.
For `C=C(C)C(O)CCC1(C)C(OC(C)=O)CCC2(C)C(Cc3c(O)c(C)c(C)oc3=O)C(=C)CCC12` (stereo not shown) [FKI-1778C], in that order: 13.0%, 64.2%, above 200 µg/mL and “no growth inhibitory activities”.
